Inconclusive results and toxic doses are left out. The calls were made as follows: active = survival T/C of 150% or more; inactive = T/C below 125% in these data.
Test system: CD2F1 mice, L1210 leukemia ip, survival T/C
Experiment: NCI In Vivo Anticancer Drug Screen. Data for tumor model L1210 Leukemia (intraperitoneal) in CD2F1 (CDF1) mice
Conditions: endpoint: mean survival time, higher = longer survival
Outline: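 Mice carrying a transplanted tumor received test compound or vehicle alone. The value is the measurement in the treated group divided by that in the vehicle-treated control group.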

[1] = dose: 100.0 mg/kg/injection, schedule: Q01DX001 (ip), vehicle: saline with Tween-80
[2] = dose: 200.0 mg/kg/injection, schedule: Q01DX001 (ip), vehicle: saline with Tween-80
[3] = dose: 400.0 mg/kg/injection, schedule: Q01DX001 (ip), vehicle: saline with Tween-80
[4] = dose: 100.0 mg/kg/injection, schedule: Q01DX009 (ip), vehicle: saline
[5] = dose: 100.0 mg/kg/injection, schedule: Q04DX003 (ip), vehicle: saline
[6] = dose: 200.0 mg/kg/injection, schedule: Q04DX003 (ip), vehicle: saline
[7] = dose: 100.0 mg/kg/injection, schedule: Q01DX009 (ip), vehicle: Klucel (hydroxypropylcellulose) (HPC)
[8] = dose: 100.0 mg/kg/injection, schedule: Q04DX003 (ip), vehicle: saline with Tween-80
[9] = dose: 200.0 mg/kg/injection, schedule: Q04DX003 (ip), vehicle: saline with Tween-80
[10] = dose: 400.0 mg/kg/injection, schedule: Q04DX003 (ip), vehicle: saline with Tween-80
[11] = dose: 100.0 mg/kg/injection, schedule: Q01DX009 (ip), vehicle: saline with Tween-80
[12] = dose: 200.0 mg/kg/injection, schedule: Q01DX009 (ip), vehicle: saline with Tween-80
[13] = dose: 400.0 mg/kg/injection, schedule: Q01DX009 (ip), vehicle: saline with Tween-80
[14] = dose: 100.0 mg/kg/injection, schedule: Q04DX002 (ip), vehicle: saline with Tween-80
[15] = dose: 200.0 mg/kg/injection, schedule: Q04DX002 (ip), vehicle: saline with Tween-80
[16] = dose: 100.0 mg/kg/injection, schedule: Q01DX001 (ip), vehicle: saline
[17] = dose: 200.0 mg/kg/injection, schedule: Q01DX001 (ip), vehicle: saline
[18] = dose: 100.0 mg/kg/injection, schedule: Q01DX001 (ip), vehicle: Klucel (hydroxypropylcellulose) (HPC)
[19] = dose: 200.0 mg/kg/injection, schedule: Q01DX001 (ip), vehicle: Klucel (hydroxypropylcellulose) (HPC)
[20] = dose: 400.0 mg/kg/injection, schedule: Q01DX001 (ip), vehicle: Klucel (hydroxypropylcellulose) (HPC)
[21] = dose: 400.0 mg/kg/injection, schedule: Q04DX002 (ip), vehicle: saline with Tween-80

Measured: T/C

CN(C)c1ccc(NS(=O)(=O)c2ccccc2)cc1
inactive: [1] 103 % of control | [2] 98 % of control | [3] 97 % of control

CCCCCCCCCCC(N)C(=O)O (stereo not given)
inactive: [4] 95 % of control | [5] 100 % of control | dose: 200.0 mg/kg/injection, schedule: Q01DX009 (ip), vehicle: saline 92 % of control | [6] 97 % of control | dose: 400.0 mg/kg/injection, schedule: Q01DX009 (ip), vehicle: saline 95 % of control | dose: 400.0 mg/kg/injection, schedule: Q04DX003 (ip), vehicle: saline 96 % of control

COc1cc(C=Nc2ccc(-c3nc(C)sc3C)cc2)ccc1N(CCCl)CCCl
active: dose: 25.0 mg/kg/injection, schedule: Q01DX001 (ip), vehicle: carboxymethylcellulose (CMC) 155 % of control
inactive: dose: 50.0 mg/kg/injection, schedule: Q01DX001 (ip), vehicle: carboxymethylcellulose (CMC) 97 % of control

O=C(Sc1cn(C2CC(O)C(CO)O2)c(=O)[nH]c1=O)c1ccc(N(CCCl)CCCl)cc1 (stereo not given)
inactive: dose: 12.5 mg/kg/injection, schedule: Q01DX005 (ip), vehicle: water 117 % of control | dose: 25.0 mg/kg/injection, schedule: Q01DX005 (ip), vehicle: water 115 % of control | dose: 50.0 mg/kg/injection, schedule: Q01DX005 (ip), vehicle: water 124 % of control | dose: 66.0 mg/kg/injection, schedule: Q01DX005 (ip), vehicle: water 119 % of control | dose: 100.0 mg/kg/injection, schedule: Q01DX005 (ip), vehicle: water 119 % of control | dose: 200.0 mg/kg/injection, schedule: Q01DX005 (ip), vehicle: water 120 % of control

CC(=O)Oc1ccc(C(=O)O)cc1
inactive: dose: 50.0 mg/kg/injection, schedule: Q01DX009 (ip), vehicle: Klucel (hydroxypropylcellulose) (HPC) 91 % of control | [7] 98 % of control

COc1ccc(C(C#N)=C2C=CC(=NO)C=C2)cc1
inactive: [8] 98 % of control | [9] 95 % of control | [10] 101 % of control

CC1(C)OC2COC3(COC(C)(C)O3)C(OS(C)(=O)=O)C2O1 (stereo not given)
inactive: [11] 102 % of control | [12] 93 % of control | [13] 95 % of control

COc1nc(NC(C)C)nc(NC(C)C)n1
inactive: dose: 50.0 mg/kg/injection, schedule: Q01DX009 (ip), vehicle: saline with Tween-80 97 % of control | [11] 107 % of control | [5] 95 % of control | [12] 105 % of control | [6] 100 % of control

COc1ccccc1NC(=O)Oc1ccc2ccccc2c1
inactive: [14] 103 % of control | [15] 91 % of control

CCOP(=S)(NCCOC)OCC
inactive: [8] 101 % of control | [9] 101 % of control | [10] 100 % of control

Oc1ccccc1NC(=S)Nc1ccccc1
inactive: [16] 102 % of control | [17] 98 % of control | dose: 400.0 mg/kg/injection, schedule: Q01DX001 (ip), vehicle: saline 100 % of control

NS(=O)(=O)c1cccc([N+](=O)[O-])c1
inactive: [1] 95 % of control | [2] 92 % of control | [3] 97 % of control

CCn1cnccc1=O
inactive: dose: 100.0 mg/kg/injection, schedule: Q04DX002 (ip), vehicle: saline 92 % of control | dose: 200.0 mg/kg/injection, schedule: Q04DX002 (ip), vehicle: saline 109 % of control | dose: 300.0 mg/kg/injection, schedule: Q04DX002 (ip), vehicle: saline 115 % of control | dose: 450.0 mg/kg/injection, schedule: Q04DX002 (ip), vehicle: saline 117 % of control

CC(C)C(C#[N+][O-])C(C)C
inactive: dose: 75.0 mg/kg/injection, schedule: Q01DX001 (ip), vehicle: other 108 % of control | dose: 150.0 mg/kg/injection, schedule: Q01DX001 (ip), vehicle: other 105 % of control | dose: 300.0 mg/kg/injection, schedule: Q01DX001 (ip), vehicle: other 96 % of control

CCCCC(CCCC)(C(=O)NC)c1ccccc1
inactive: [8] 95 % of control | [9] 97 % of control | [10] 90 % of control

Nc1cccc2ccc(O)cc12
inactive: [18] 96 % of control | [19] 86 % of control | [20] 104 % of control

NC(=O)C(Cc1ccccc1)NC(=O)c1ccccc1 (stereo not given)
inactive: [11] 91 % of control

CCOC(=O)c1c(C)[nH]c(C(=O)C(N=O)C(=O)OCC)c1C (stereo not given)
inactive: [8] 101 % of control | [9] 97 % of control | [10] 97 % of control

C[n+]1ccn(CC(=O)c2ccccc2)c1
inactive: dose: 25.0 mg/kg/injection, schedule: Q01DX009 (ip), vehicle: saline 105 % of control | dose: 50.0 mg/kg/injection, schedule: Q01DX009 (ip), vehicle: saline 103 % of control | [4] 105 % of control | [5] 102 % of control

CN(C)c1ccc(/C=N/N=C(/N)N[N+](=O)[O-])cc1
inactive: [16] 94 % of control | [17] 97 % of control

O=C1C2CCCC1C1/C(=[N+](/[O-])O)C=C([N+](=O)[O-])C2C1[N+](=O)[O-] (stereo not given)
inactive: [14] 98 % of control | [15] 98 % of control | [21] 110 % of control

O=S(CS(=O)c1ccccc1)c1ccccc1 (stereo not given)
inactive: [8] 100 % of control | [9] 109 % of control | [10] 105 % of control

Cc1ccc(NC(=O)Nc2cccc(NC(=O)COc3ccc(Cl)cc3C(=O)O)c2)cc1S(=O)(=O)F
inactive: [1] 88 % of control | [2] 86 % of control | [3] 89 % of control

CC(Cl)CN(CC(C)Cl)c1ccc(S(=O)(=O)Nc2ncccn2)cc1 (stereo not given)
inactive: dose: 35.0 mg/kg/injection, schedule: Q01DX009 (ip), vehicle: other 114 % of control

C/C(=N\N(C)C)C(C)(C)C
inactive: dose: 75.0 mg/kg/injection, schedule: Q01DX001 (ip), vehicle: saline 93 % of control | dose: 150.0 mg/kg/injection, schedule: Q01DX001 (ip), vehicle: saline 100 % of control | dose: 300.0 mg/kg/injection, schedule: Q01DX001 (ip), vehicle: saline 108 % of control

Cc1ccc2nc(C(F)(F)F)cc(NN)c2c1
inactive: [11] 100 % of control | [8] 101 % of control | [12] 94 % of control | [9] 96 % of control | [13] 100 % of control | [10] 98 % of control

CC(C)C1=CCC(OC(=O)N=C=Nc2ccccc2)CC1 (stereo not given)
inactive: [18] 93 % of control | [14] 90 % of control | [19] 91 % of control | [15] 96 % of control | [20] 94 % of control | [21] 93 % of control

Cn1c(=O)c2[nH]c(-c3ccccc3[N+](=O)[O-])nc2n(C)c1=O
inactive: dose: 12.5 mg/kg/injection, schedule: Q01DX005 (ip), vehicle: other 97 % of control | dose: 25.0 mg/kg/injection, schedule: Q01DX005 (ip), vehicle: other 94 % of control | dose: 50.0 mg/kg/injection, schedule: Q01DX005 (ip), vehicle: other 90 % of control | dose: 100.0 mg/kg/injection, schedule: Q01DX005 (ip), vehicle: other 96 % of control | dose: 200.0 mg/kg/injection, schedule: Q01DX005 (ip), vehicle: other 94 % of control

CCC(/C=C/C(C)C1CCC2C3CCC45CC4CCC5(C)C3CCC12C)C(C)C (stereo not given)
inactive: [8] 97 % of control | [10] 87 % of control

CCCSCC(CSCCC)(CSCCC)CSCCC
inactive: [1] 107 % of control | [2] 111 % of control | [3] 101 % of control

O=[N+]([O-])c1ccc(C(Cl)S(=O)(=O)c2ccccc2)cc1 (stereo not given)
inactive: [7] 98 % of control | dose: 200.0 mg/kg/injection, schedule: Q01DX009 (ip), vehicle: Klucel (hydroxypropylcellulose) (HPC) 92 % of control | dose: 400.0 mg/kg/injection, schedule: Q01DX009 (ip), vehicle: Klucel (hydroxypropylcellulose) (HPC) 110 % of control

Nc1nc(=O)n(CCCOc2cccc([N+](=O)[O-])c2)cc1-c1ccccc1
inactive: [1] 96 % of control | [2] 87 % of control | [3] 87 % of control

— PubChem BioAssay AID256 (DTP/NCI, 2004)
